According to patent publication US7071197B2, “N,N-disubstituted diazocycloalkanes” (Recordati S.A., priority 2002, dated 2006):
Like-named read-outs stand apart in the source and are kept apart here.

Legend:
[1] = target: T1, human α1a-adrenoceptor (Homo sapiens, UniProt P35348); experiment: [3H]prazosin binding to cloned human α1-adrenoceptor subtypes (α1a); conditions: for Ki: [3H]prazosin, CHO cell membranes, read-out: Binding affinity (Ki, nM) α1a; for α1a/5-HT1A: selectivity: ratio of Ki at α1a and Ki at 5-HT1A
T1 construct: expressed in transfected cells
T1 sequence (P35348 1-466): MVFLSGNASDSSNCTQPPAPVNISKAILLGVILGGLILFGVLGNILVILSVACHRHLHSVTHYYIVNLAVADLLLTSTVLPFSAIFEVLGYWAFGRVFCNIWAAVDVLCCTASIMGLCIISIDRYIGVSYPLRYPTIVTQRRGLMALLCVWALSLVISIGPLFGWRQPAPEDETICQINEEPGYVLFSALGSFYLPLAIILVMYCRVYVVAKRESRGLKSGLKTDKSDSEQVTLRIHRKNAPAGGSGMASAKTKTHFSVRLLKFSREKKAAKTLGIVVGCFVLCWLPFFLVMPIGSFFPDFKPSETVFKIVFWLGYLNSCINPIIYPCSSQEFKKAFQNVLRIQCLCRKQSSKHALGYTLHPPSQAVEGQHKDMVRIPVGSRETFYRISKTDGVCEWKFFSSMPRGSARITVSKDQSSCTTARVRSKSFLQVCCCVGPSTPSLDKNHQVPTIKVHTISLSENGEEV
Method: Binding to cloned human α1-adrenoceptor subtypes was performed in membranes from CHO cells (chinese hamster ovary cells) transfected by electroporation with DNA expressing the gene encoding each α1-adrenoceptor subtype. Cloning and stable expression of the human α1-adrenoceptor gene was performed as previously described (Testa et al. Pharmacol. Comm., 6: 79–86,1995).
CHO cells were grown in suspension in Iscove's modified Dulbecco's medium, supplemented with 10% fetal calf serum and gentamicin (50 μg/ml), at 37° C. in 7% CO2 in an humidified incubator. Cells were collected by centrifugation, lised in ice-cold Tris 5 mM and EDTA 5 mM buffer (pH 7.4) and gently homogenised. Homogenates were centrifuged at 40000×g×20 min and pellets were resuspended in a small volume of ice-cold Tris 5 mM and EDTA 5 mM buffer (pH 7.4) and immediately frozen and stored at −80° C. until use.
CHO cell membranes were resuspended and incubated in 50 mM Tris, pH 7.4, with 0.2 nM [^3H]prazosin, in a final volume of 1.02 ml for 30 min at 25° C., in absence or presence of competing drugs. Non-specific binding was determined in the presence of 10 μM phentolamine. The incubation was stopped by rapid filtration through 0.2% polyethyleneimine pretreated Schleicher & Schuell GF52 filters using a Tomtec (PerkinElmer) cell harvester. The filters were washed with 3×1 ml of ice-cold Tris buffer, dried and the radioactivity was measured in a Betaplate (Wallac) liquid scintillation counter.
The inhibition of specific binding by the compounds was analysed to estimate the IC50 value by the non-linear curve-fitting program Allfit (De Lean et al. Am. J. Physiol. 235, E97-E102, 1978). The IC50 value is converted to an affinity constant (Ki) by the equation of Cheng & Prusoff (Biochem. Pharmacol. 22: 3099–3108, 1973).

[2] = target: T2, post-synaptic 5-HT1A receptors (Rattus norvegicus, UniProt P19327); experiment: Inhibition of stereotypy (rhythmic forepaw treading) induced by 8-OH-DPAT in rats; type: in vivo; conditions: for inhibition at 1 mg/kg / inhibition at 3 mg/kg / inhibition at 10 mg/kg / inhibition at 0.01 mg/kg / inhibition at 0.03 mg/kg / inhibition at 0.1 mg/kg / inhibition at 0.3 mg/kg: rat; for inhibition at 1 mg/kg: 1 mg/kg p.o.; for inhibition at 3 mg/kg: 3 mg/kg p.o.; for inhibition at 10 mg/kg: 10 mg/kg p.o.; for inhibition at 0.01 mg/kg: 0.01 mg/kg i.v.; for inhibition at 0.03 mg/kg: 0.03 mg/kg i.v.; for inhibition at 0.1 mg/kg: 0.1 mg/kg i.v.
T2 construct: from tissue; host or cells: whole animal, male Sprague-Dawley rat (in vivo)
T2 sequence (P19327 1-422): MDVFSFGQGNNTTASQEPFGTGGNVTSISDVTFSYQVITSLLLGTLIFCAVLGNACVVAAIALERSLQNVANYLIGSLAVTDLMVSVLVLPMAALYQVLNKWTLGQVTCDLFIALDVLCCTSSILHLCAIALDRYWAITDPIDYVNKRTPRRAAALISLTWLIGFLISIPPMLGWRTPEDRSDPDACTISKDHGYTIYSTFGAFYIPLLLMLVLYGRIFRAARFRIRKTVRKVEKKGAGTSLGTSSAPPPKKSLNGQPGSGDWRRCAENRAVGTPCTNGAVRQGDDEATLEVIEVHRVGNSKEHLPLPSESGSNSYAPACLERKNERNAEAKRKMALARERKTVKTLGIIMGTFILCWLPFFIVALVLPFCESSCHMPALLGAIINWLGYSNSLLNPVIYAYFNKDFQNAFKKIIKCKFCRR
Method: The inhibitory effect of 5-HT1A-receptor antagonists on stereotyped forepaw treading induced in rats by subcutaneous injection of 8-OH-DPAT was evaluated by the method of Tricklebank (Tricklebank et al., Eur. J. Pharmacol., 117: 15, 1985) with minor modifications as described below.
Male Sprague-Dawley rats [Crl: CD® (SD) IGS BR] weighing 150–175 g from Charles River Italia were used. The animals were housed with free access to food and water and maintained on a forced 12-hour-light/12-hour-dark cycle at 22–24° C. of temperature. On the day of the experiment, the rats were placed singly in clear plastic containers, 10–15 minutes before administration of the vehicle or compounds to be tested. For evaluation of antagonistic activity after intravenous or oral administration, the compounds were administered 1 and 4 hours before induction of stereotypy by 8-OH-DPAT (1 mg/kg subcutaneously). Observation sessions lasted 30 seconds and began 3 minutes after 8-OH-DPAT treatment and were repeated every 3 minutes over a period of 15 minutes.
The appearance of the symptom induced by postsynaptic stimulation of 5-HT1A receptors was noted, and the intensity was scored using an intensity scale in which: 0=absent, 1=equivocal, 2=present and 3=intense. Behavioural scores for treated rats were accumulated throughout the observation time (5 observation periods) and expressed as mean values of 4 rats/dose. Change in mean values of treated animals in comparison with control (vehicle) group, expressed as per-cent inhibition, was used to quantify the antagonistic activity.

[3] = after intravenous administration
[4] = iv, 0.3 mg/kg i.v., 1 h before 8-OH-DPAT
[5] = iv, 0.3 mg/kg i.v., 4 h before 8-OH-DPAT
[6] = po, 0.3 mg/kg p.o., 1 h before 8-OH-DPAT
[7] = po, 0.3 mg/kg p.o., 4 h before 8-OH-DPAT

Row | Ki [1] [nM] | α1a/5-HT1A [1] | ED75 (equieffective dose inhibiting the forepaw treading by 75%) ([2]; 1 h p.o.) | ED75 (equieffective dose inhibiting the forepaw treading by 75%) ([2]; 4 h p.o.) | inhibition at 1 mg/kg ([2]; po, 1 h before 8-OH-DPAT) [%] | inhibition at 1 mg/kg ([2]; po, 4 h before 8-OH-DPAT) [%] | inhibition at 3 mg/kg ([2]; po, 1 h before 8-OH-DPAT) [%] | inhibition at 3 mg/kg ([2]; po, 4 h before 8-OH-DPAT) [%] | ED75 (equieffective dose inhibiting the forepaw treading by 75%) ([2]; 1 h i.v.) | ED75 (equieffective dose inhibiting the forepaw treading by 75%) ([2]; 4 h i.v.) | potency in inhibiting forepaw treading, comparison [2, 3] | inhibition at 0.01 mg/kg ([2]; iv, 1 h before 8-OH-DPAT) [%] | inhibition at 0.01 mg/kg ([2]; iv, 4 h before 8-OH-DPAT) [%] | inhibition at 0.03 mg/kg ([2]; iv, 1 h before 8-OH-DPAT) [%] | inhibition at 0.03 mg/kg ([2]; iv, 4 h before 8-OH-DPAT) [%] | inhibition at 0.1 mg/kg ([2]; iv, 1 h before 8-OH-DPAT) [%] | inhibition at 0.1 mg/kg ([2]; iv, 4 h before 8-OH-DPAT) [%] | inhibition at 0.3 mg/kg [2, 4] [%] | inhibition at 0.3 mg/kg [2, 5] [%] | inhibition at 0.3 mg/kg [2, 6] [%] | SMILES | further results
1 | 18 | 138 | 1 h p.o.: ED75 = 3.3 mg/kg/ | 4 h p.o.: ED75 = 4.0 mg/kg | 35 | 37 | 84 | 72 | – | – | – | – | – | – | – | – | – | – | – | – | COc1ccccc1N1CCN(CC[C@@H](c2ccccc2F)[C@H](O)C2CCCCC2)CC1 (racemic) [Ex. 1, 1-[(SR-RS)-4-cyclohexyl-4-hydroxy-3-(2-fluorophenyl)-butyl]-4-(2-methoxyphenyl)-piperazine] | inhibition at 10 mg/kg ([2]; po, 1 h before 8-OH-DPAT): 100%; inhibition at 10 mg/kg ([2]; po, 4 h before 8-OH-DPAT): 96%
2 | 51 | 78 | 1 h p.o.: ED75 = 2.1 mg/kg/ | – | 42 | 46 | 90 | 67 | 1 h i.v.: ED75 = 0.032 mg/kg/ | 4 h i.v.: ED75 = 0.138 mg/kg | practically equipotent | 41 | 26 | 82 | 54 | 100 | 72 | 100 | 85 | 8 | COc1ccccc1N1CCN(CC[C@H](c2ccccc2)[C@@H](O)C2CCCCC2)CC1 (racemic) [Ex. 5, 1-[(RS,SR)-4-Cyclohexyl-4-hydroxy-3-phenyl-butyl]-4-(2-methoxyphenyl)-piperazine, reference compound] | ED75 (equieffective dose inhibiting the forepaw treading by 75%) [2]: 4 h p.o.: ED75 = 4.6 mg/kg; inhibition at 0.3 mg/kg [2, 7]: 20%
3 | 24 | 65 | 1 h p.o.: ED75 = 1.7 mg/kg/ | 4 h p.o.: ED75 = 2.6 mg/kg | 58 | 38 | 92 | 85 | 1 h i.v.: ED75 = 0.038 mg/kg/ | 4 h i.v.: ED75 = 0.182 mg/kg | practically equipotent | 37 | 11 | 72 | 35 | 100 | 65 | 100 | 84 | 18 | COc1ccccc1N1CCN(CC[C@H](c2ccccc2F)[C@@H](O)C2CCCCC2)CC1 [Ex. 1Y, 1-[(3R,4S)-4-cyclohexyl-4-hydroxy-3-(2-fluorophenyl)-butyl]-4-(2-methoxyphenyl)-piperazine] | potency in inhibiting forepaw treading, comparison ([2]; after oral administration, in particular at four hours): more potent than Ex. 5; inhibition at 0.3 mg/kg [2, 7]: 18%
4 | 44 | 183 | – | – | – | – | – | – | 1 h i.v.: ED75 = 0.041 mg/kg/ | 4 h i.v.: ED75 = 0.152 mg/kg | practically equipotent | 39 | 6 | 65 | 49 | 100 | 63 | 100 | 89 | – | COc1ccccc1N1CCN(CC[C@H](c2ccccc2F)[C@H](O)C2CCCCC2)CC1 [Ex. 2X, 1-[(3R,4R)-4-cyclohexyl-4-hydroxy-3-(2-fluorophenyl)-butyl]-4-(2-methoxyphenyl)-piperazine] | –
